# Measured values published in paper PMC11662004 (Communications Chemistry, 2024).
# Like-named read-outs stand apart in the source and are kept apart here.
# Target: T1, NgTet1 (Naegleria gruberi, UniProt D2W6T1)
# T1 construct: His6-tagged full-length Naegleria gruberi NgTet1 (321 a. a.) protein with a thrombin cleavage site; made in house; host or cells: E. coli BL21(DE3)
# T1 sequence (D2W6T1 1-321): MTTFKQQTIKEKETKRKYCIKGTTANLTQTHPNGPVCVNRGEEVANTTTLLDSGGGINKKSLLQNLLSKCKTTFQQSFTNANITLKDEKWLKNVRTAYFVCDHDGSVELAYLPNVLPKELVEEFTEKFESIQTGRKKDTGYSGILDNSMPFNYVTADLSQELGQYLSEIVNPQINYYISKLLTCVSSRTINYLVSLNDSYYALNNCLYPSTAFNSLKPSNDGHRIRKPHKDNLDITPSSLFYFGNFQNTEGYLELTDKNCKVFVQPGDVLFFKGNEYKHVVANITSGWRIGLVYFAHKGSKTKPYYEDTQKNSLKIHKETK
# Type: biochemical
# Method: Double-stranded 12 bp DNA oligomers were added at a final concentration of 20 µM. […]
# Double-stranded DNA oligomers were added at a final concentration of 20 µM. […]
# All ^1H NMR spectra were recorded at 25 °C using D2O as a reference for internal deuterium lock on a Bruker Avance III 700 MHz equipped with an inverse TCI cryoprobe in 3 or 5 mm diameter tubes with a total sample volume of 160 or 565 μL, respectively. The water signal was reduced using Perfect Echo excitation sculpting suppression. Chemical shifts are reported in ppm relative to D2O (δH = 4.70 ppm).
# Spectrometer settings were determined using a control sample containing all reaction components excluding enzyme. TET enzyme was added to an identical sample, and the resulting assay mixture was transferred to an NMR tube before deposition into the instrument. […] Spectrum recordings were carried out consecutively without delay. Data were processed using automated routines on MestReNova v14.2.0; signals of interest were integrated with absolute intensity scaling. ^1H NMR time courses reported in figures are representative results from two or three independent replicates.
sequence,measurement,setting,value
"AT DNA: double-stranded self-complementary 5'-ACC ACA TGT GGT-3', CpG replaced by ApT (DNA ACCACATGTGGT; DNA, backbone and methylation of C not given here; self-complementary duplex)",V0 NgTet1,"20 µM DNA, 100 μM 2OG, 5 μM NgTet1",0.82 µM/min
same,succinate,"n = 1, time (min) 5HC DNA 5.9, AT DNA 5.81667, 5mC DNA 5.78333",4.127 µM
same,succinate,"n = 1, time (min) 5HC DNA 8.98333, AT DNA 8.9, 5mC DNA 8.86667",6.717 µM
same,succinate,"n = 1, time (min) 5HC DNA 12.0667, AT DNA 11.9833, 5mC DNA 11.95",10.1801 µM
same,succinate,"n = 1, time (min) 5HC DNA 15.1333, AT DNA 15.0667, 5mC DNA 15.0333",12.0396 µM
same,succinate,"n = 1, time (min) 5HC DNA 18.2167, AT DNA 18.1333, 5mC DNA 18.1167",14.7705 µM
same,succinate,"n = 1, time (min) 5HC DNA 21.3667, AT DNA 21.2333, 5mC DNA 21.2",16.3534 µM
same,succinate,"n = 1, time (min) 5HC DNA 24.45, AT DNA 24.3167, 5mC DNA 24.2833",18.4118 µM
same,succinate,"n = 1, time (min) 5HC DNA 27.5333, AT DNA 27.3833, 5mC DNA 27.3667",20.2156 µM
same,succinate,"n = 1, time (min) 5HC DNA 30.6, AT DNA 30.4667, 5mC DNA 30.45",21.7474 µM
same,succinate,"n = 1, time (min) 5HC DNA 33.6833, AT DNA 33.55, 5mC DNA 33.5333",22.2243 µM
same,succinate,"n = 1, time (min) 5HC DNA 36.7667, AT DNA 36.6333, 5mC DNA 36.6167",23.7117 µM
same,succinate,"n = 1, time (min) 5HC DNA 39.85, AT DNA 39.7167, 5mC DNA 39.7",24.5115 µM
same,succinate,"n = 1, time (min) 5HC DNA 42.9333, AT DNA 42.8, 5mC DNA 42.7833",26.1396 µM
same,succinate,"n = 1, time (min) 5HC DNA 46.0167, AT DNA 45.8833, 5mC DNA 45.8667",27.6473 µM
same,succinate,"n = 1, time (min) 5HC DNA 49.0833, AT DNA 48.9667, 5mC DNA 48.95",28.232 µM
same,succinate,"n = 1, time (min) 5HC DNA 52.1667, AT DNA 52.05, 5mC DNA 52.0333",29.053 µM
same,succinate,"n = 1, time (min) 5HC DNA 55.25, AT DNA 55.1167, 5mC DNA 55.1167",29.9694 µM
same,succinate,"n = 1, time (min) 5HC DNA 58.3333, AT DNA 58.2, 5mC DNA 58.2",30.8156 µM
same,succinate,"n = 1, time (min) 5HC DNA 61.4, AT DNA 61.2833, 5mC DNA 61.2833",32.4581 µM
same,succinate,"n = 1, time (min) 5HC DNA 64.4833, AT DNA 64.3833, 5mC DNA 64.35",32.8043 µM
same,succinate,"n = 2, time (min) 5HC DNA 5.81667, AT DNA 5.61667, 5mC DNA 6.08333",3.542 µM
same,succinate,"n = 2, time (min) 5HC DNA 8.88333, AT DNA 8.7, 5mC DNA 9.16667",5.909 µM
same,succinate,"n = 2, time (min) 5HC DNA 12.0333, AT DNA 11.7833, 5mC DNA 12.25",8.271 µM
same,succinate,"n = 2, time (min) 5HC DNA 15.1167, AT DNA 14.8667, 5mC DNA 15.3167",11.2722 µM
same,succinate,"n = 2, time (min) 5HC DNA 18.1833, AT DNA 17.9333, 5mC DNA 18.4",12.8044 µM
same,succinate,"n = 2, time (min) 5HC DNA 21.2667, AT DNA 21.0167, 5mC DNA 21.4833",14.5697 µM
same,succinate,"n = 2, time (min) 5HC DNA 24.35, AT DNA 24.1, 5mC DNA 24.5667",16.6119 µM
same,succinate,"n = 2, time (min) 5HC DNA 27.4333, AT DNA 27.1833, 5mC DNA 27.65",17.8887 µM
same,succinate,"n = 2, time (min) 5HC DNA 30.5167, AT DNA 30.2667, 5mC DNA 30.7333",19.2454 µM
same,succinate,"n = 2, time (min) 5HC DNA 33.6, AT DNA 33.35, 5mC DNA 33.8167",20.9427 µM
same,succinate,"n = 2, time (min) 5HC DNA 36.6833, AT DNA 36.4333, 5mC DNA 36.9",21.6807 µM
same,succinate,"n = 2, time (min) 5HC DNA 39.7667, AT DNA 39.5167, 5mC DNA 39.9833",23.2699 µM
same,succinate,"n = 2, time (min) 5HC DNA 42.8333, AT DNA 42.6, 5mC DNA 43.0667",23.7997 µM
same,succinate,"n = 2, time (min) 5HC DNA 45.9167, AT DNA 45.6833, 5mC DNA 46.15",25.1342 µM
same,succinate,"n = 2, time (min) 5HC DNA 49, AT DNA 48.7667, 5mC DNA 49.2333",26.0623 µM
same,succinate,"n = 2, time (min) 5HC DNA 52.0833, AT DNA 51.85, 5mC DNA 52.3167",26.9664 µM
same,succinate,"n = 2, time (min) 5HC DNA 55.1667, AT DNA 54.9333, 5mC DNA 55.4",27.9222 µM
same,succinate,"n = 2, time (min) 5HC DNA 58.25, AT DNA 58.0167, 5mC DNA 58.4833",28.2598 µM
same,succinate,"n = 2, time (min) 5HC DNA 61.3333, AT DNA 61.1, 5mC DNA 61.5667",29.5623 µM
same,succinate,"n = 2, time (min) 5HC DNA 64.4167, AT DNA 64.1667, 5mC DNA 64.65",30.2392 µM
same,Relative V0 NgTet1,relative to reactions without DNA,2.3
